Results taken from ChEMBL document CHEMBL6092217 (Eur J Med Chem, 2024).
pIC50, pKd: −log10 of the molar value. Activity calls are given as the source filed them. The rule behind the calls is not given here.

Tests used:
[1] = tested on: HepG2; assay: Antiproliferative activity against human HepG2 cells assessed as cell viability incubated for 72 hrs by MTT assay; assay type: functional, cell-based; conditions: HepG2, 72 h
[2] = tested on: HT-29; assay: Antiproliferative activity against human HT-29 cells assessed as cell viability incubated for 72 hrs by MTT assay; assay type: functional, cell-based; conditions: HT-29, 72 h
[3] = Binding affinity to porcine brain tubulin assessed as dissociation constant measured after 20 mins by fluorescence based analysis; design: species or system Sus scrofa
[4] = biological target: Tubulin (Homo sapiens) (UniProt P68371+Q9H4B7+P0DPH7+P68366+Q13509+Q71U36+P04350+Q3ZCM7+P07437+P68363+Q9BQE3+Q6PEY2+Q13885+Q9BVA1+Q9BUF5); assay: (§1) Inhibition of tubulin polymerization (unknown origin) in presence of GTP by fluorescence plate reader analysis; assay type: protein-complex assay; conditions: dose 0.625-10 µM
[5] = biological target: Tubulin; assay: as §1; assay type: protein-complex assay, Homo sapiens
[6] = tested on: HT-29; assay: Induction of cell cycle arrest in human HT-29 cells assessed as accumulation of cells at G1 phase at 50 nM incubated for 24 hrs by flow cytometry analysis (reference value: 67.6%); assay type: functional
[7] = tested on: HT-29; assay: Induction of cell cycle arrest in human HT-29 cells assessed as accumulation of cells at G1 phase at 100 nM incubated for 24 hrs by flow cytometry analysis (reference value: 67.6%); assay type: functional
[8] = tested on: HT-29; assay: Induction of cell cycle arrest in human HT-29 cells assessed as accumulation of cells at G1 phase at 200 nM incubated for 24 hrs by flow cytometry analysis (reference value: 67.6%); assay type: functional
[9] = tested on: HT-29; assay: Induction of cell cycle arrest in human HT-29 cells assessed as accumulation of cells at S phase at 50 nM incubated for 24 hrs by flow cytometry analysis (reference value: 20.8 %); assay type: functional
[10] = tested on: HT-29; assay: Induction of cell cycle arrest in human HT-29 cells assessed as accumulation of cells at S phase at 100 nM incubated for 24 hrs by flow cytometry analysis (reference value: 20.8 %); assay type: functional
[11] = tested on: HT-29; assay: Induction of cell cycle arrest in human HT-29 cells assessed as accumulation of cells at G2 phase at 50 nM incubated for 24 hrs by flow cytometry analysis (reference value: 13 %); assay type: functional
[12] = tested on: HT-29; assay: Induction of cell cycle arrest in human HT-29 cells assessed as increase in cyclin-B1 expression incubated for 24 hrs by Western blot analysis; assay type: functional, cell-based; conditions: dose 50-200 nM
[13] = tested on: HT-29; assay: Induction of cell cycle arrest in human HT-29 cells assessed as effect on CDC2 expression at 50 to 200 nM incubated for 24 hrs by Western blot analysis; assay type: functional, cell-based; conditions: dose 50-200 nM
[14] = tested on: HT-29; assay: Induction of apoptosis in human HT-29 cells assessed as viable cells at 50 nM incubated for 24 hrs by FITC/PI staining based flow cytometry analysis (reference value: 91.6%); assay type: functional; conditions: read-out: Activity
[15] = tested on: HT-29; assay: Induction of apoptosis in human HT-29 cells assessed as early apoptotic cells at 50 nM incubated for 24 hrs by FITC/PI staining based flow cytometry analysis (reference value: 8.14%); assay type: functional
[16] = tested on: HT-29; assay: Induction of apoptosis in human HT-29 cells assessed as necrotic cells at 50 nM incubated for 24 hrs by FITC/PI staining based flow cytometry analysis (reference value: 0.017 %); assay type: functional
[17] = tested on: HT-29; assay: Induction of apoptosis in human HT-29 cells assessed as early apoptotic cells at 100 nM incubated for 24 hrs by FITC/PI staining based flow cytometry analysis (reference value: 8.14%); assay type: functional
[18] = tested on: HT-29; assay: Induction of apoptosis in human HT-29 cells assessed as viable cells at 200 nM incubated for 24 hrs by FITC/PI staining based flow cytometry analysis (reference value: 91.6%); assay type: functional; conditions: read-out: Activity
[19] = tested on: HT-29; assay: Induction of apoptosis in human HT-29 cells assessed as early apoptotic cells at 200 nM incubated for 24 hrs by FITC/PI staining based flow cytometry analysis (reference value: 8.14%); assay type: functional
[20] = tested on: HT-29; assay: Induction of apoptosis in human HT-29 cells assessed as necrotic cells at 200 nM incubated for 24 hrs by FITC/PI staining based flow cytometry analysis (reference value: 0.017 %); assay type: functional
[21] = tested on: HT-29; assay: Induction of apoptosis in human HT-29 cells assessed as upregulation of Bax level at 50 to 200 nM incubated for 24 hrs by Western blot analysis; assay type: functional, cell-based; conditions: dose 50-200 nM
[22] = tested on: HT-29; assay: Induction of apoptosis in human HT-29 cells assessed as upregulation of cleaved caspase 3 level at 50 to 200 nM incubated for 24 hrs by Western blot analysis; assay type: functional, cell-based; conditions: dose 50-200 nM
[23] = tested on: HT-29; assay: Induction of apoptosis in human HT-29 cells assessed as downregulation of Bcl-2 level at 50 to 200 nM incubated for 24 hrs by Western blot analysis; assay type: functional, cell-based; conditions: dose 50-200 nM
[24] = tested on: Mitochondrial membrane; assay: Induction of mitochondrial membrane potential loss in human HT-29 cells assessed as increase in green fluorescence at 50 to 100 nM incubated for 24 hrs by JC-1 staining based confocal microscopic analysis; assay type: cell membranes; conditions: dose 50-100 nM
[25] = tested on: HT-29; assay: Induction of ROS accumulation in human HT-29 cells incubated for 24 hrs by DCFH-DA staining based microscopic analysis; assay type: functional, cell-based; conditions: dose 50-100 nM
[26] = tested on: HUVEC; assay: Inhibition of tube formation in HUVEC cells incubated for 6 hrs by inverted microscopic analysis; assay type: functional, cell-based; conditions: Homo sapiens, dose 50-100 nM
[27] = tested on: HT-29; assay: Antitumor activity against human HT-29 cells xenografted in BALB/c mouse assessed as tumor growth inhibition at 10 mg/kg, iv measured after 21 days; assay type: functional; conditions: HT-29, 504 h, time 21 day, read-out: TGI
[28] = tested on: HT-29; assay: Antitumor activity against human HT-29 cells xenografted in BALB/c mouse assessed as tumor growth inhibition at 20 mg/kg, iv measured after 21 days; assay type: functional; conditions: HT-29, 504 h, time 21 day, read-out: TGI
[29] = tested on: HT-29; assay: Antitumor activity against human HT-29 cells xenografted in BALB/c mouse assessed as reduction in Ki67 expression at 10 to 40 mg/kg, iv measured after 21 days by immunohistochemical analysis; assay type: functional, organism-based; conditions: dose 10-40 mg/kg, time 21.0 day
[30] = Toxicity in BALB/c mouse assessed as kidney damage at 10 to 40 mg/kg, iv measured after 21 days by H and E staining based analysis; assay type: organism-based; conditions: in vivo, 504 h, dose 10-40 mg/kg, time 21 day
[31] = Toxicity in ICR mouse assessed as effect on AST level at 10 to 40 mg/kg, iv administered every 2 days and measured after 14 days; assay type: organism-based; conditions: in vivo, 336 h, dose 10-40 mg/kg, time 14 day
[32] = Toxicity in ICR mouse assessed as effect on granulocytes count at 10 to 40 mg/kg, iv administered every 2 days and measured after 14 days; assay type: organism-based; conditions: in vivo, 336 h, dose 10-40 mg/kg, time 14 day
[33] = Toxicity in ICR mouse assessed as effect on hemoglobin level at 10 to 40 mg/kg, iv administered every 2 days and measured after 14 days; assay type: organism-based; conditions: in vivo, 336 h, dose 10-40 mg/kg, time 14 day
[34] = Toxicity in ICR mouse assessed as effect on RBC count at 10 to 40 mg/kg, iv administered every 2 days and measured after 14 days; assay type: organism-based; conditions: in vivo, 336 h, dose 10-40 mg/kg, time 14 day
[35] = Half life in Sprague-Dawley rat at 5 mg/kg, iv measured upto 24 hrs by HPLC-MS analysis; assay type: ADME, organism-based; conditions: in vivo
[36] = MRT (0 to t) in Sprague-Dawley rat at 5 mg/kg, iv measured upto 24 hrs by HPLC-MS analysis; assay type: ADME, organism-based; conditions: in vivo

COc1ccc(N(C)c2nc(/C=C/c3cccc(OC)c3)nc3ccccc23)cc1
pIC50 [1]: 6.72
pIC50 [2]: 7.29
pKd [3]: 5.06
inhibition [4]: Dose-dependent-effect
pIC50 [5]: 5.50
Activity [6]: 64.6%
Activity [7]: 35.6%
Activity [8]: 23.5%
Activity [9]: 16.5%
Activity [10]: 24.9%
Activity [11]: 17.8%
Activity [12]: Dose-dependent-effect
Activity [13]: inactive
viability at 0.05 µM [14]: 72%
Activity [15]: 12.7%
Activity [16]: 1.79%
Activity [17]: 2.87%
viability at 0.2 µM [18]: 43.2%
Activity [19]: 18.2%
Activity [20]: 1.36%
Activity [21]: Active
Activity [22]: Active
Activity [23]: Active
Activity [24]: Active
Activity [25]: Dose-dependent-effect
inhibition [26]: Dose-dependent-effect
inhibition in vivo at 10 mg/kg [27]: 53%
inhibition in vivo at 20 mg/kg [28]: 64.7%
Activity [29]: Active
Activity [30]: Non-toxic
Activity [31]: Non-toxic
Activity [32]: Non-toxic
Activity [33]: Non-toxic
Activity [34]: Non-toxic
half-life [35]: 30.6 min
MRT last at 24 h [36]: 46.8 min
